The values that follow come from patent US12594282B2, “Use of small molecule compounds in the treatment of diseases mediated by lung epithelial cell injury and/or vascular endothelial cell injury” (Guangzhou Cellprotek Pharmaceutical Co., Ltd., priority 2020, dated 2026).

Assay [1] concerns NR4A3. Description: NR4A3 protein expression under OGD-R, RAOEC (Western blot, immunofluorescence). Format: cell-based, rat. The settings on record: OGD 4 hours, restoration 24 hours, 1, 3, 10 μM given at restoration. The procedure: (§1) HUVEC cells were cultured in modified DMEM medium containing 10% fetal bovine serum. When the cells reached about 80% confluence, the cells were digested with 0.25% trypsin, and then pipetted evenly with modified DMEM containing 10% […]. The cell concentration was adjusted to 1×10^5 cells/mL, and the cells were seeded at 400 uL/well in a 24-well plate, and the experiment was carried out when the cells grew to about 70% confluence. RAOEC cells were cultured in high-glucose DMEM medium containing 10% fetal bovine serum, and the seeding conditions were the same as those of HUVEC. During the OGD-R injury treatment, the hypoxia workstation was set to have an oxygen concentration of 1% (1% O2, 5% CO2, 94% N2), a temperature of 37° C., and a humidity of 85%. A sugar-free DMEM medium was placed in the hypoxia workstation for pre-hypoxia for 3 hours. The medium in the culture plate was aspirated, and the plate was washed twice with preheated sugar-free DMEM medium, and 100 uL of sugar-free DMEM medium was added to each well. The culture plate was placed in the hypoxia workstation, and 300 uL of pre-hypoxic sugar-free DMEM medium was added to each well, and then the culture plate was placed in the hypoxia workstation for additional hypoxia for 4 hours. Restoration was then performed. The culture plate was taken out, and the sugar-free DMEM medium was replaced with 400 uL of normal medium containing 10% fetal bovine serum, and then the plate was placed in a 37° C. 5% CO2 cell incubator for culturing for 24 hours or a specified time period. For the cells in the normal group, it was only replaced with 400 uL of new normal medium containing 10% fetal bovine serum. […]
(§2) The cells were washed twice with pre-cooled PBS, then scraped off with a cell scraper and transferred to a 1.5 mL centrifuge tube, and centrifugation was performed at 4° C. and 1000 g for 5 minutes. […] Each protein sample was then quantified using the BCA protein quantification kit. After protein quantification, protein lysis buffer was used to adjust the protein concentration of each sample to be consistent with the protein sample with the lowest concentration, and then each protein sample was sufficiently mixed with 5× protein loading buffer at a ratio of 4:1. […]

For assay [2], the system named is NR4A3. Description: NR4A3 protein expression under OGD-R, HUVEC (Western blot, immunofluorescence). Format: cell-based, human. As to conditions: OGD 4 hours, restoration 24 hours, 1, 3, 10 μM given at restoration. The procedure:
as §1, §2
In general terms: A western blot detects proteins with antibodies after separation by electrophoresis.

For the next assay, the system named is NR4A3 mRNA. Description: NR4A3 mRNA under OGD-R, HUVEC (real-time fluorescent quantitative PCR). Format: cell-based, human. As to conditions: 10 μM given at restoration. The procedure: as §1, with “performed.” for “performed. The culture plate was taken out, and the sugar-free DMEM medium was replaced with 400 uL of normal medium containing 10% fetal bovine serum, and then the plate was placed in a 37° C. 5% CO2 cell incubator for culturing for 24 hours or a specified time period. For the cells in the normal group, it was only replaced with 400 uL of new normal medium containing 10% fetal bovine serum.”

In assay [3] the test system is NR4A3. The experiment in a line: NR4A3 ubiquitination after OGD-R in vascular endothelial cells (immunoprecipitation with anti-ubiquitin antibodies). Format: cell-based. As for the experimental part: as §1
The cells were washed twice with pre-cooled PBS, then scraped off with a cell scraper and transferred to a 1.5 mL centrifuge tube, and centrifugation was performed at 4° C. and 1000 g for 5 minutes. […] Each protein sample was then quantified using the BCA protein quantification kit. After protein quantification, IP lysis buffer was used to adjust the protein concentration of each sample to 1 mg/mL. […]

Each structure is given as a SMILES string.

In the case of `C[C@@]12CCCC1C1C[C@@H](O)[C@]3(O)C[C@@H](O)CC[C@]3(C)C1CC2` (stereo partly drawn) [YC-6, 5α-androst-3β,5,6β-triol], the NR4A3 protein expression entry in the assay on NR4A3 [1] and in the assay with NR4A3 [2] was “dose-dependently increase the protein expression of NR4A3” each time. In addition, the “transcription level of NR4A3 (relative mRNA expression)” value with NR4A3 mRNA is listed as “did not significantly up-regulate the transcription level of NR4A3”. Moreover, in the assay with NR4A3 [3] (YC-6 10 μM with MG132 100 nM after restoration), the “ubiquitination of NR4A3 on co-administration with MG132” value is reported as “did not significantly increase the ubiquitination of NR4A3”. The “ubiquitination modification of NR4A3 induced by restoration” value in the assay with NR4A3 [3] (YC-6 10 μM, MG132 100 nM, given at restoration) is recorded as “could inhibit the ubiquitination of NR4A3 induced by restoration”.
